{"source": "patent US20210078988A1", "about": "“MODULATORS OF INDOLEAMINE 2,3-DIOXYGENASE” (GLAXOSMITHKLINE INTELLECTUAL PROPERTY DEVELOPMENT LIMITED, priority 2017, published 2021)", "target": "T1, indoleamine 2, 3-dioxygenase (IDO1) (Homo sapiens, UniProt P14902)", "T1 construct": "human peripheral blood mononuclear cells (PBMC) (PB003F; host or cells: human PBMC stimulated with IFN-gamma and LPS", "T1 sequence (P14902 whole entry)": "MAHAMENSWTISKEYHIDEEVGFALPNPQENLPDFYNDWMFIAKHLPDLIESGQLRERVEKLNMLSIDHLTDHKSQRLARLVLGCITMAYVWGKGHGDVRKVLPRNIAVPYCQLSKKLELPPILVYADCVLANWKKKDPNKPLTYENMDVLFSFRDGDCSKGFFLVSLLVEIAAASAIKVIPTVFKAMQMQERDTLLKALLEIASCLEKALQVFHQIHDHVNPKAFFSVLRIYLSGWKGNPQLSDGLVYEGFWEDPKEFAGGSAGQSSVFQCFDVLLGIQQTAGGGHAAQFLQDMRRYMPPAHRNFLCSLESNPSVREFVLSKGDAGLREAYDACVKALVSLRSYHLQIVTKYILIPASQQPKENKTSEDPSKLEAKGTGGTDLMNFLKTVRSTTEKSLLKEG", "assay": "PBMC IDO1 assay (kynurenine detection via mass spectrometry)", "assay_type": "cell-based", "conditions": "human PBMC stimulated with IFN-γ and LPS, 2 days, kynurenine by mass spectrometry; read-out: IDO1 PBMC pIC50 (converted)", "procedure": "Compounds of the present invention were tested via high-throughput cellular assays utilizing detection of kynurenine via mass spectrometry and cytotoxicity as end-points. For the mass spectrometry and cytotoxicity assays, human peripheral blood mononuclear cells (PBMC) (PB003F; AIICells®, Alameda, Calif.) were stimulated with human interferon-γ (IFN-γ) (Sigma-Aldrich Corporation, St. Louis, Mo.) and lipopolysaccharide from Salmonella minnesota (LPS) (Invivogen, San Diego, Calif.) to induce the expression of indoleamine 2, 3-dioxygenase (IDO1). Compounds with IDO1 inhibitory properties decreased the amount of kynurenine produced by the cells via the tryptophan catabolic pathway. Cellular toxicity due to the effect of compound treatment was measured using CellTiter-Glo® reagent (CTG) (Promega Corporation, Madison, Wis.), which is based on luminescent detection of ATP, an indicator of metabolically active cells.\nIn preparation for the assays, test compounds were serially diluted 3-fold in DMSO from a typical top concentration of 5 mM and plated at 0.5 μL in 384-well, polystyrene, clear bottom, tissue culture treated plates with lids (Greiner Bio-One, Kremsmunster, Austria) to generate 11-point dose response curves. Low control wells (0% kynurenine or 100% cytotoxicity) contained either 0.5 μL of DMSO in the presence of unstimulated (-IFN-γ/-LPS) PBMCs for the mass spectrometry assay or 0.5 μL of DMSO in the absence of cells for the cytotoxicity assay, and high control wells (100% kynurenine or 0% cytotoxicity) contained 0.5 μL of DMSO in the presence of stimulated (+IFN-γ/+LPS) PBMCs for both the mass spectrometry and cytotoxicity assays.\nFrozen stocks of PBMCs were washed and recovered in RPMI 1640 medium (Thermo Fisher Scientific, Inc., Waltham, Mass.) supplemented with 10% v/v heat-inactivated fetal bovine serum (FBS) (Thermo Fisher Scientific, Inc., Waltham, Mass.), and 1× penicillin-streptomycin antibiotic solution (Thermo Fisher Scientific, Inc., Waltham, Mass.). The cells were diluted to 1,000,000 cells/mL in the supplemented RPMI 1640 medium. 50 μL of either the cell suspension, for the mass spectrometry assay, or medium alone, for the cytotoxicity assay, were added to the low control wells, on the previously prepared 384-well compound plates, resulting in 50,000 cells/well or 0 cells/well respectively. IFN-γ and LPS were added to the remaining cell suspension at final concentrations of 100 ng/ml and 50 ng/ml respectively, and 50 μL of the stimulated cells were added to all remaining wells on the 384-well compound plates. The plates, with lids, were then placed in a 37° C., 5% CO2 humidified incubator for 2 days.\nFollowing incubation, the 384-well plates were removed from the incubator and allowed to equilibrate to room temperature for 30 minutes. For the cytotoxicity assay, CellTiter-Glo® was prepared according to the manufacturer's instructions, and 40 μL were added to each plate well. After a twenty minute incubation at room temperature, luminescence was read on an EnVision® Multilabel Reader (PerkinElmer Inc., Waltham, Mass.). For the mass spectrometry assay, 10 μL of supernatant from each well of the compound-treated plates were added to 40 μL of acetonitrile, containing 10 μM of an internal standard for normalization, in 384-well, polypropylene, V-bottom plates (Greiner Bio-One, Kremsmunster, Austria) to extract the organic analytes. Following centrifugation at 2000 rpm for 10 minutes, 10 μL from each well of the acetonitrile extraction plates were added to 90 μL of sterile, distilled H2O in 384-well, polypropylene, V-bottom plates for analysis of kynurenine and the internal standard on the RapidFire 300 (Agilent Technologies, Santa Clara, Calif.) and 4000 QTRAP MS (SCIEX, Framingham, Mass.). MS data were integrated using Agilent Technologies' RapidFire Integrator software, and data were normalized for analysis as a ratio of kynurenine to the internal standard. […]"}
{"smiles": "COc1ccc([C@H](CC2CCN(C(=O)C(F)(F)c3ccccc3)CC2)NC(=O)c2ccc(Cl)s2)cn1", "note": "[Example 43, (S)-5-chloro-N-(2-(1-(2,2-difluoro-2-phenylacetyl)piperidin-4-yl)-1-(6-methoxypyridin-3-yl)ethyl)thiophene-2-carboxamide]", "values": [{"measurement": "IC50", "result": 1, "unit": "nM"}]}
{"smiles": "CCN(CC)c1nnc(C(CC2CCN(C(=O)OC(C)(C)C)CC2)NC(=O)c2ccc(Cl)s2)o1", "note": "(stereo not drawn) [Example 44, tert-butyl 4-(2-(5-chlorothiophene-2-carboxamido)-2-(5-(diethylamino)-1,3,4-oxadiazol-2-yl)ethyl)piperidine-1-carboxylate]", "values": [{"measurement": "IC50", "result": 3.16, "unit": "nM"}]}
{"smiles": "CCOC(=O)N1CCC(CC(NC(=O)c2ccc(Cl)s2)c2nnc(N(CC)CC)o2)CC1", "note": "(stereo not drawn) [Example 45, ethyl 4-(2-(5-chlorothiophene-2-carboxamido)-2-(5-(diethylamino)-1,3,4-oxadiazol-2-yl)ethyl)piperidine-1-carboxylate]", "values": [{"measurement": "IC50", "result": 3.16, "unit": "nM"}]}
{"smiles": "Cc1ccc(C(=O)NC(CC2CCN(C(=O)OC(C)(C)C)CC2)C(C)C)s1", "note": "(stereo not drawn) [Example 46, tert-butyl 4-(3-methyl-2-(5-methylthiophene-2-carboxamido)butyl)piperidine-1-carboxylate]", "values": [{"measurement": "IC50", "result": 3.98, "unit": "nM"}]}
{"smiles": "CCC(CC)c1nc(C(CC2CCN(C(=O)OC(C)(C)C)CC2)NC(=O)c2ccc(Cl)s2)no1", "note": "(stereo not drawn) [Example 47, tert-butyl 4-(2-(5-chlorothiophene-2-carboxamido)-2-(5-(pentan-3-yl)-1,2,4-oxadiazol-3-yl)ethyl)piperidine-1-carboxylate]", "values": [{"measurement": "IC50", "result": 3.98, "unit": "nM"}]}
{"smiles": "CCN(CC)c1nnc(C(CC2CCN(C(=O)OC(C)(C)C)CC2)NC(=O)c2ccc(C)s2)o1", "note": "(stereo not drawn) [Example 48, tert-butyl 4-(2-(5-(diethylamino)-1,3,4-oxadiazol-2-yl)-2-(5-methylthiophene-2-carboxamido)ethyl)piperidine-1-carboxylate]", "values": [{"measurement": "IC50", "result": 3.98, "unit": "nM"}]}
{"smiles": "CCc1ccc(C(=O)NC(CC2CCN(C(=O)OC(C)(C)C)CC2)C(C)C)s1", "note": "(stereo not drawn) [Example 49, tert-butyl 4-(2-(5-ethylthiophene-2-carboxamido)-3-methylbutyl)piperidine-1-carboxylate]", "values": [{"measurement": "IC50", "result": 6.31, "unit": "nM"}]}
{"smiles": "CCN(c1nnc(C(CC2CCN(C(=O)OC(C)(C)C)CC2)NC(=O)c2ccc(C)s2)o1)C1CC1", "note": "(stereo not drawn) [Example 50, tert-butyl 4-(2-(5-(cyclopropyl(ethyl)amino)-1,3,4-oxadiazol-2-yl)-2-(5-methylthiophene-2-carboxamido)ethyl)piperidine-1-carboxylate]", "values": [{"measurement": "IC50", "result": 6.31, "unit": "nM"}]}
{"smiles": "Cc1ccc(C(=O)NC(CC2CCN(C(=O)Oc3ccccc3)CC2)c2ccccc2)s1", "note": "(stereo not drawn) [Example 51, phenyl 4-(2-(5-methylthiophene-2-carboxamido)-2-phenylethyl)piperidine-1-carboxylate]", "values": [{"measurement": "IC50", "result": 7.94, "unit": "nM"}]}
{"smiles": "CCN(C)c1nnc(C(CC2CCN(C(=O)OC(C)(C)C)CC2)NC(=O)c2ccc(C)s2)o1", "note": "(stereo not drawn) [Example 52, tert-butyl 4-(2-(5-(ethyl(methyl)amino)-1,3,4-oxadiazol-2-yl)-2-(5-methylthiophene-2-carboxamido)ethyl)piperidine-1-carboxylate]", "values": [{"measurement": "IC50", "result": 10, "unit": "nM"}]}
{"smiles": "CCN(CC)c1nnc(C(CC2CCN(C(=O)Oc3ccccc3)CC2)NC(=O)c2ccc(Cl)s2)o1", "note": "(stereo not drawn) [Example 53, phenyl 4-(2-(5-chlorothiophene-2-carboxamido)-2-(5-(diethylamino)-1,3,4-oxadiazol-2-yl)ethyl)piperidine-1-carboxylate]", "values": [{"measurement": "IC50", "result": 3.16, "unit": "nM"}]}
{"smiles": "COc1ccc(C(CC2CCN(C(=O)OC(C)(C)C)CC2)NC(=O)c2ccc(F)cc2)cn1", "note": "(stereo not drawn) [Example 54, tert-butyl 4-(2-(4-fluorobenzamido)-2-(6-methoxypyridin-3-yl)ethyl)piperidine-1-carboxylate]", "values": [{"measurement": "IC50", "result": 12.6, "unit": "nM"}]}
{"smiles": "COc1ccc(C(CC2CCN(C(=O)OC(C)C)CC2)NC(=O)c2ccc(F)cc2)cn1", "note": "(stereo not drawn) [Example 55, isopropyl 4-(2-(4-fluorobenzamido)-2-(6-methoxypyridin-3-yl)ethyl)piperidine-1-carboxylate]", "values": [{"measurement": "IC50", "result": 12.6, "unit": "nM"}]}
{"smiles": "COc1ccc(C(CC2CCN(C(=O)OCC(C)C)CC2)NC(=O)c2ccc(F)cc2)cn1", "note": "(stereo not drawn) [Example 56, isobutyl 4-(2-(4-fluorobenzamido)-2-(6-methoxypyridin-3-yl)ethyl)piperidine-1-carboxylate]", "values": [{"measurement": "IC50", "result": 12.6, "unit": "nM"}]}
{"smiles": "CC(C)(C)OC(=O)N1CCC(CC(NC(=O)c2ccc(Br)cc2)c2ccccc2)CC1", "note": "(stereo not drawn) [Example 57, tert-butyl 4-(2-(4-bromobenzamido)-2-phenylethyl)piperidine-1-carboxylate]", "values": [{"measurement": "IC50", "result": 12.6, "unit": "nM"}]}
{"smiles": "CC(C)(C)OC(=O)N1CCC(CC(NC(=O)c2ccc(F)s2)c2ccccc2)CC1", "note": "(stereo not drawn) [Example 58, tert-butyl 4-(2-(5-fluorothiophene-2-carboxamido)-2-phenylethyl)piperidine-1-carboxylate]", "values": [{"measurement": "IC50", "result": 12.6, "unit": "nM"}]}
{"smiles": "Cc1ccc(C(=O)NC(CC2CCN(C(=O)OC(C)(C)C)CC2)C2CCCC2)s1", "note": "(stereo not drawn) [Example 59, tert-butyl 4-(2-cyclopentyl-2-(5-methylthiophene-2-carboxamido)ethyl)piperidine-1-carboxylate]", "values": [{"measurement": "IC50", "result": 12.6, "unit": "nM"}]}
{"smiles": "CCc1ccc(C(=O)NC(CC(C)C)CC2CCN(C(=O)OC(C)(C)C)CC2)s1", "note": "(stereo not drawn) [Example 60, tert-butyl 4-(2-(5-ethylthiophene-2-carboxamido)-4-methylpentyl)piperidine-1-carboxylate]", "values": [{"measurement": "IC50", "result": 12.6, "unit": "nM"}]}
{"smiles": "O=C(NC(CC1CCN(C(=O)OC2CCC2)CC1)c1ccccc1)c1ccc(Cl)cc1", "note": "(stereo not drawn) [Example 61, cyclobutyl 4-(2-(4-chlorobenzamido)-2-phenylethyl)piperidine-1-carboxylate]", "values": [{"measurement": "IC50", "result": 12.6, "unit": "nM"}]}
{"smiles": "C#CCOC(=O)N1CCC(CC(NC(=O)c2ccc(Cl)cc2)c2ccccc2)CC1", "note": "(stereo not drawn) [Example 62, prop-2-yn-1-yl 4-(2-(4-chlorobenzamido)-2-phenylethyl)piperidine-1-carboxylate]", "values": [{"measurement": "IC50", "result": 12.6, "unit": "nM"}]}
{"smiles": "CC(C)(C)OC(=O)N1CCC(C[C@H](NC(=O)c2ccc(Br)cc2)C2CC2)CC1", "note": "[Example 63, (S)-tert-butyl 4-(2-(4-bromobenzamido)-2-cyclopropylethyl)piperidine-1-carboxylate]", "values": [{"measurement": "IC50", "result": 12.6, "unit": "nM"}]}
{"smiles": "CC(C)(C)OC(=O)N1CCC(CC(NC(=O)c2ccc(Cl)s2)C2CCCCC2)CC1", "note": "(stereo not drawn) [Example 64, tert-butyl 4-(2-(5-chlorothiophene-2-carboxamido)-2-cyclohexylethyl)piperidine-1-carboxylate]", "values": [{"measurement": "IC50", "result": 12.6, "unit": "nM"}]}
{"smiles": "CC(C)(C)OC(=O)N1CCC(C[C@H](NC(=O)c2ccc(Cl)cc2)c2ccccc2)CC1", "note": "[Example 65, (S)-tert-butyl 4-(2-(4-chlorobenzamido)-2-phenylethyl)piperidine-1-carboxylate]", "values": [{"measurement": "IC50", "result": 12.6, "unit": "nM"}]}
{"smiles": "CCOC(=O)N1CCC(C[C@H](NC(=O)c2ccc(CC)s2)c2ccccc2)CC1", "note": "[Example 66, (S)-ethyl 4-(2-(5-ethylthiophene-2-carboxamido)-2-phenylethyl)piperidine-1-carboxylate]", "values": [{"measurement": "IC50", "result": 12.6, "unit": "nM"}]}
{"smiles": "CC(C)CC(CC1CCN(C(=O)Oc2ccccc2)CC1)NC(=O)c1ccc(Cl)cc1", "note": "(stereo not drawn) [Example 67, phenyl 4-(2-(4-chlorobenzamido)-4-methylpentyl)piperidine-1-carboxylate]", "values": [{"measurement": "IC50", "result": 12.6, "unit": "nM"}]}
{"smiles": "CC(C)(C)OC(=O)N1CCC(CC(NC(=O)c2ccc(Cl)cc2)c2ccccc2)CC1", "note": "(stereo not drawn) [Example 68, tert-butyl 4-(2-(4-chlorobenzamido)-2-phenylethyl)piperidine-1-carboxylate]", "values": [{"measurement": "IC50", "result": 15.8, "unit": "nM"}]}
{"smiles": "Cc1ccc(C(=O)NC(CC2CCN(C(=O)OC(C)(C)C)CC2)c2ccccc2)s1", "note": "(stereo not drawn) [Example 69, tert-butyl 4-(2-(5-methylthiophene-2-carboxamido)-2-phenylethyl)piperidine-1-carboxylate]", "values": [{"measurement": "IC50", "result": 15.8, "unit": "nM"}]}
